Measured values reported in US20070027201A1 (Wyeth, priority 2005, published 2007).

Experiments:
progesterone receptor [1] = target: T1, progesterone receptor (Homo sapiens, UniProt P06401); assay: T47D alkaline phosphatase assay for progesterone receptor modulator (antagonist) activity; assay type: cell-based; parameters: Frozen T47D cells are thawed in a 37° C. water bath and diluted to 280,000 cells/mL in culture medium; endogenous in cells; host or cells: T47D cells; settings: T47D cells, antagonist mode in the presence of 1 nM progesterone, 24 hours
T1 sequence (P06401 1-933): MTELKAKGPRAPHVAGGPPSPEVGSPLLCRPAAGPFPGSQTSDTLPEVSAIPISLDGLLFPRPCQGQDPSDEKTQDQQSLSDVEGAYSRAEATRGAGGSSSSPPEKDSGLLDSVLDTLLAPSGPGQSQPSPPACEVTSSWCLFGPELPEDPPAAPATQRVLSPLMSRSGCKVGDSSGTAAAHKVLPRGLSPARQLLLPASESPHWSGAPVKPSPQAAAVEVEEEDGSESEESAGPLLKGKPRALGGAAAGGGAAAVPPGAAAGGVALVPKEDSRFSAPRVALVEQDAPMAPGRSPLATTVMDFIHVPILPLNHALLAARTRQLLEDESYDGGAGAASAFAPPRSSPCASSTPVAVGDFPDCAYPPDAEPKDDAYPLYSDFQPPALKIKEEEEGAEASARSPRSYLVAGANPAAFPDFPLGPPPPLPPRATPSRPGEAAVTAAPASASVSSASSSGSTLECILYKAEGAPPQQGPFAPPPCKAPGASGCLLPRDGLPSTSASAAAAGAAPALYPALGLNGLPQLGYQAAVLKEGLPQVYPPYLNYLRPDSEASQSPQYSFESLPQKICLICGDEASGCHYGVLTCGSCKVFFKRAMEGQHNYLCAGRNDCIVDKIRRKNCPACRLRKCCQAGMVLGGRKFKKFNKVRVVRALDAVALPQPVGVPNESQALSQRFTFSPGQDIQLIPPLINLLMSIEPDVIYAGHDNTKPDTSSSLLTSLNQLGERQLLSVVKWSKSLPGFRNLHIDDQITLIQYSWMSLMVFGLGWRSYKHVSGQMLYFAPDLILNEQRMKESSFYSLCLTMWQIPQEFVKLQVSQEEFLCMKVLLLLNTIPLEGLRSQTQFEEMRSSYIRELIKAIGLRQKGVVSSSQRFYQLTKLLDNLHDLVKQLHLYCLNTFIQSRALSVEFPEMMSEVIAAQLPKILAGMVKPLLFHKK
Method: (§1) An assay was performed to identify compounds having progesterone receptor modulator activity. This assay identifies progestins or antiprogestins by determining a compound's effect on alkaline phosphatase activity in T47D cells.
(§2) Culture medium: DMEM:F12 (1:1) (GIBCO, BRL) supplemented with 5% (v/v) charcoal stripped fetal bovine serum (not heat-inactivated), 100 U/mL penicillin, 100 μg/mL streptomycin, and 2 mM the GlutaMax® reagent (GIBCO, BRL).
(§3) Alkaline phosphatase assay buffer: • I. 0.1M Tris-HCl, pH 9.8, containing 0.2% the Triton™ X-100 reagent • II. 0.1M Tris-HCl, pH 9.8, containing 4 mM p-nitrophenyl phosphate (Sigma).
(§4) Frozen T47D cells are thawed in a 37° C. water bath and diluted to 280,000 cells/mL in culture medium. To each well in a 96-well plate (Falcon, Becton Dickinson Labware), 180 μL of diluted cell suspension is added.
Twenty μL of reference or test compounds diluted in the culture medium is then added to each well. When testing for progestin antagonist activity, reference antiprogestins or test compounds are added in the presence of 1 nM progesterone. […]
Analysis of dose-response data. […] EC50 or IC50 values are calculated from the retransformed values. […]
Progesterone and trimegestone are reference progestins and RU486 is the reference antiprogestin. All reference compounds are run in full dose response curves and the EC50 and IC50 values are calculated. […]

progesterone receptor [2] = target: T1, progesterone receptor; assay: as above; assay type: cell-based; parameters: endogenous in cells; host or cells: T47D cells; settings: T47D cells; for IC50: antagonist mode in the presence of 1 nM progesterone, 24 hours; for Antagonist Efficacy: in the presence of 1 nM progesterone; for inhibition at 3 µM: at Active Dose 3000 nM
Method: as §1, §2, §3, §4
Twenty μL of reference or test compounds diluted in the culture medium is then added to each well. When testing for progestin antagonist activity, reference antiprogestins or test compounds are added in the presence of 1 nM progesterone. The cells are incubated at 37° C. in a 5% CO2/humidified atmosphere for 24 hours.
For high throughput screening, one concentration of each compound will be tested at 0.3 μg/mL. Based on an average molecular weight of 300 g/mol for the compounds in the library, the concentration is approximately 1 μM. Subsequently, active compounds will be tested in dose response assays to determine EC50 and IC50.
At the end of treatment, the medium is removed from the plate. Fifty μL of assay buffer I is added to each well. The plates are shaken in a titer plate shaker for 15 minutes. Then 150 μL of assay buffer II is added to each well. Optical density measurements are taken at 5 minute intervals for 30 minutes at a test wavelength of 405 nm.
Analysis of dose-response data. For reference and test compounds, a dose response curve is generated for dose (x-axis) vs. the rate of enzyme reaction (slope) (y-axis). Square root-transformed data are used for analysis of variance and nonlinear dose response curve fitting for both agonist and antagonist modes. Huber weighting is used to down-weight the effects of outliers. EC50 or IC50 values are calculated from the retransformed values. The JMP® software (SAS Institute, Inc.) is used for both one-way analysis of variance and non-linear dose response analysis in both single dose and dose response studies.
Progesterone and trimegestone are reference progestins and RU486 is the reference antiprogestin. All reference compounds are run in full dose response curves and the EC50 and IC50 values are calculated.
In the table provided above, the IC50 values show the relative progesterone receptor antagonist activity in this assay. Lower numbers are indicative of higher potency, i.e., greater PR antagonist activity. Further, the assay has a standard deviation of about ±6.

Row | Compound | IC50 (progesterone receptor [2]) [nM] | further results
1 | CN(C#N)c1ccc(-c2ccc(C#N)n2C)cc1 [Example 38] |  | IC50 (progesterone receptor [1]): 88.2 nM
2 | CCCS(=O)(=O)Nc1ccc(-c2ccc(C#N)n2C)cc1OC(F)(F)F [Example 61, N-[4-(5-cyano-1-methyl-1H-pyrrol-2-yl)-2-(trifluoromethoxy)phenyl]propane-1-sulfonamide] | 40.7 | 
3 | CCS(=O)(=O)Nc1ccc(-c2ccc(C#N)[nH]2)cc1 [Example 65, N-[4-(5-cyano-1H-pyrrol-2-yl)phenyl]ethanesulfonamide] | 68.6 | Antagonist Efficacy (progesterone receptor [2]): 85%
4 | CCn1c(C#N)ccc1-c1ccc(NS(=O)(=O)CC)cc1 [Example 66, N-[4-(5-cyano-1-ethyl-1H-pyrrol-2-yl)phenyl]ethanesulfonamide] | 84.1 | Antagonist Efficacy (progesterone receptor [2]): 80%
5 | CCCn1c(C#N)ccc1-c1ccc(NS(=O)(=O)CC)cc1 [Example 67, N-[4-(5-cyano-1-propyl-1H-pyrrol-2-yl)phenyl]ethanesulfonamide] | 721 | 
6 | CCCCn1c(C#N)ccc1-c1ccc(NS(=O)(=O)CC)cc1 [Example 68, N-[4-(1-butyl-5-cyano-1H-pyrrol-2-yl)phenyl]ethanesulfonamide] | 546 | 
7 | C=CCn1c(C#N)ccc1-c1ccc(NS(=O)(=O)CC)cc1 [Example 69, N-[4-(1-allyl-5-cyano-1H-pyrrol-2-yl)phenyl]ethanesulfonamide] | 600 | 
8 | C#CCn1c(C#N)ccc1-c1ccc(NS(=O)(=O)CC)cc1 [Example 70, N-[4-(5-cyano-1-prop-2-yn-1-yl-1H-pyrrol-2-yl)phenyl]ethanesulfonamide] | 797 | 
9 | CCS(=O)(=O)Nc1ccc(-c2ccc(C#N)n2CCCc2ccccc2)cc1 [Example 71, N-{4-[5-cyano-1-(3-phenylpropyl)-1H-pyrrol-2-yl]phenyl}ethanesulfonamide] |  | Active Dose (progesterone receptor [2]): 3000 nM; inhibition at 3 µM (progesterone receptor [2]): 15%
10 | Cn1c(C#N)ccc1-c1ccc(NS(C)(=O)=O)cc1C#N [Example 74, N-[3-cyano-4-(5-cyano-1-methyl-1H-pyrrol-2-yl)phenyl]methanesulfonamide] | 198 | 
11 | CCS(=O)(=O)Nc1ccc(-c2ccc(C#N)n2C)c(C#N)c1 [Example 75, N-[3-cyano-4-(5-cyano-1-methyl-1H-pyrrol-2-yl)phenyl]ethanesulfonamide] | 124 | 
12 | CCCS(=O)(=O)Nc1ccc(-c2ccc(C#N)n2C)c(C#N)c1 [Example 76, N-[3-cyano-4-(5-cyano-1-methyl-1H-pyrrol-2-yl)phenyl]propane-1-sulfonamide] | 86.8 | 
13 | Cn1c(C#N)ccc1-c1ccc(NS(C)(=O)=O)c(C#N)c1 [Example 77, N-[2-cyano-4-(5-cyano-1-methyl-1H-pyrrol-2-yl)phenyl]methanesulfonamide] |  | Active Dose (progesterone receptor [2]): 3000 nM; inhibition at 3 µM (progesterone receptor [2]): 50%
14 | Cn1c(C#N)ccc1-c1c(F)cc(NS(C)(=O)=O)cc1F [Example 79, N-[4-(5-cyano-1-methyl-1H-pyrrol-2-yl)-3,5-difluorophenyl]-methanesulfonamide] | 16 | 
15 | CCS(=O)(=O)Nc1cc(F)c(-c2ccc(C#N)n2C)c(F)c1 [Example 80, N-[4-(5-cyano-1-methyl-1H-pyrrol-2-yl)-3,5-difluorophenyl]ethane-sulfonamide] | 19 | 
16 | CCCS(=O)(=O)Nc1cc(F)c(-c2ccc(C#N)n2C)c(F)c1 [Example 81, N-[4-(5-cyano-1-methyl-1H-pyrrol-2-yl)-3,5-difluorophenyl]propane-1-sulfonamide] | 6.2 | 
17 | CCCCS(=O)(=O)Nc1cc(F)c(-c2ccc(C#N)n2C)c(F)c1 [Example 82, N-[4-(5-cyano-1-methyl-1H-pyrrol-2-yl)-3,5-difluorophenyl]butane-1-sulfonamide] | 8.6 | 
